Where “and” joins values, the source holds several entries; their conditions need not be identical. Equal entries are not always repeated. Inconclusive results and toxic doses are left out.
Test system: P388 leukemia ip, CD2F1 mice, survival T/C
Assay: NCI In Vivo Anticancer Drug Screen. Data for tumor model P388 Leukemia (intraperitoneal) in CD2F1 (CDF1) mice
Settings: endpoint: median survival time, higher = longer survival
Summary of the method: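 Mice carrying the transplanted tumor received test compound or vehicle. Survival was recorded in each group, and the value is the treated-group measurement divided by that of the vehicle-treated control group.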

[1] = dose: 6.25 mg/kg/injection, schedule: Q01DX009 (ip), vehicle: Klucel (hydroxypropylcellulose) (HPC)
[2] = dose: 12.5 mg/kg/injection, schedule: Q01DX009 (ip), vehicle: Klucel (hydroxypropylcellulose) (HPC)
[3] = dose: 25.0 mg/kg/injection, schedule: Q01DX009 (ip), vehicle: Klucel (hydroxypropylcellulose) (HPC)
[4] = dose: 100.0 mg/kg/injection, schedule: Q01DX009 (ip), vehicle: Klucel (hydroxypropylcellulose) (HPC)

## COc1ccc(CC2C(=O)NC(C)C(=O)N(C)C3C(=O)N(C)C(Cc4ccc(O)c(c4)Oc4ccc(cc4)C3O)C(=O)NC(C)C(=O)NC(C)C(=O)N2C)cc1 (stereo unspecified)
dose: 0.03 mg/kg/injection, schedule: Q01DX009 (ip), vehicle: Klucel (hydroxypropylcellulose) (HPC)
  T/C: 94 % of control
dose: 0.03 mg/kg/injection, schedule: Q01DX009 (ip), vehicle: saline + alcohol
  T/C: 100 % of control
dose: 0.03 mg/kg/injection, schedule: Q03HX024 (ip), vehicle: saline + alcohol
  T/C: 123 % of control
dose: 0.06 mg/kg/injection, schedule: Q01DX009 (ip), vehicle: Klucel (hydroxypropylcellulose) (HPC)
  T/C: 102 % of control
dose: 0.06 mg/kg/injection, schedule: Q01DX009 (ip), vehicle: saline + alcohol
  T/C: 106 % of control
dose: 0.06 mg/kg/injection, schedule: Q03HX008 (ip), vehicle: saline + alcohol
  T/C: 118 % of control
dose: 0.06 mg/kg/injection, schedule: Q03HX016 (ip), vehicle: saline + alcohol
  T/C: 122 % of control
dose: 0.12 mg/kg/injection, schedule: Q01DX009 (ip), vehicle: Klucel (hydroxypropylcellulose) (HPC)
  T/C: 104 % of control
dose: 0.12 mg/kg/injection, schedule: Q01DX009 (ip), vehicle: saline + alcohol
  T/C: 111 % of control
dose: 0.13 mg/kg/injection, schedule: Q03HX024 (ip), vehicle: other
  T/C: 103 % of control
dose: 0.13 mg/kg/injection, schedule: Q03HX024 (ip), vehicle: saline + alcohol
  T/C: 153 % of control
dose: 0.25 mg/kg/injection, schedule: Q01DX005 (ip), vehicle: saline
  T/C: 116 % of control
dose: 0.25 mg/kg/injection, schedule: Q01DX005 (iv), vehicle: other
  T/C: 100 % of control
dose: 0.25 mg/kg/injection, schedule: Q01DX005 (iv), vehicle: saline
  T/C: 107 % of control
dose: 0.25 mg/kg/injection, schedule: Q01DX009 (ip), vehicle: Klucel (hydroxypropylcellulose) (HPC)
  T/C: 113 % of control
dose: 0.25 mg/kg/injection, schedule: Q01DX009 (sc), vehicle: other
  T/C: 95 % of control
dose: 0.25 mg/kg/injection, schedule: Q03HX008 (ip), vehicle: other
  T/C: 120 % of control
dose: 0.25 mg/kg/injection, schedule: Q03HX016 (ip), vehicle: other
  T/C: 100 % of control
dose: 0.25 mg/kg/injection, schedule: Q03HX024 (ip), vehicle: other
  T/C: 91 % of control
dose: 0.25 mg/kg/injection, schedule: Q03HX024 (ip), vehicle: saline + alcohol
  T/C: 157 % of control
dose: 0.5 mg/kg/injection, schedule: Q01DX005 (iv), vehicle: other
  T/C: 98 % of control
dose: 0.5 mg/kg/injection, schedule: Q01DX005 (iv), vehicle: saline
  T/C: 114 % of control
dose: 0.5 mg/kg/injection, schedule: Q01DX009 (ip), vehicle: clinical formulation
  T/C: 157 % of control
dose: 0.5 mg/kg/injection, schedule: Q01DX009 (ip), vehicle: water
  T/C: 154 % of control
dose: 0.5 mg/kg/injection, schedule: Q01DX009 (oral), vehicle: other
  T/C: 98 % of control
dose: 0.5 mg/kg/injection, schedule: Q01DX009 (sc), vehicle: other
  T/C: 99 % of control
dose: 0.5 mg/kg/injection, schedule: Q03HX016 (ip), vehicle: saline + alcohol
  T/C: 150 % of control
dose: 0.5 mg/kg/injection, schedule: Q03HX024 (ip), vehicle: saline + alcohol
  T/C: 172 % of control
dose: 1.0 mg/kg/injection, schedule: Q01DX001 (ip), vehicle: other
  T/C: 122 % of control
dose: 1.0 mg/kg/injection, schedule: Q01DX001 (oral), vehicle: other
  T/C: 103 % of control
dose: 1.0 mg/kg/injection, schedule: Q01DX005 (ip), vehicle: saline
  T/C: 158 % of control
dose: 1.0 mg/kg/injection, schedule: Q01DX005 (iv), vehicle: other
  T/C: 99 % of control
dose: 1.0 mg/kg/injection, schedule: Q01DX009 (ip), vehicle: Klucel (hydroxypropylcellulose) (HPC)
  T/C: 113 % of control
dose: 1.0 mg/kg/injection, schedule: Q01DX009 (ip), vehicle: clinical formulation
  T/C: 198 % of control
dose: 1.0 mg/kg/injection, schedule: Q01DX009 (ip), vehicle: other
  T/C: 167 % of control
dose: 1.0 mg/kg/injection, schedule: Q01DX009 (ip), vehicle: saline + alcohol
  T/C: 172 % of control
dose: 1.0 mg/kg/injection, schedule: Q01DX009 (ip), vehicle: water
  T/C: 166 % of control
dose: 1.0 mg/kg/injection, schedule: Q01DX009 (oral), vehicle: other
  T/C: 95 % of control
dose: 1.0 mg/kg/injection, schedule: Q01DX009 (sc), vehicle: other
  T/C: 95 % of control
dose: 2.0 mg/kg/injection, schedule: Q01DX001 (oral), vehicle: other
  T/C: 97 % of control
dose: 2.0 mg/kg/injection, schedule: Q01DX005 (ip), vehicle: other
  T/C: 167 % of control
dose: 2.0 mg/kg/injection, schedule: Q01DX005 (ip), vehicle: saline
  T/C: 166 % of control
dose: 2.0 mg/kg/injection, schedule: Q01DX009 (ip), vehicle: clinical formulation
  T/C: 195 % of control
dose: 2.0 mg/kg/injection, schedule: Q01DX009 (ip), vehicle: other
  T/C: 183 % of control
dose: 2.0 mg/kg/injection, schedule: Q01DX009 (ip), vehicle: saline + alcohol
  T/C: 184 % of control
dose: 2.0 mg/kg/injection, schedule: Q01DX009 (ip), vehicle: water
  T/C: 184 % of control
dose: 2.0 mg/kg/injection, schedule: Q01DX009 (oral), vehicle: other
  T/C: 122 % of control
dose: 2.0 mg/kg/injection, schedule: Q04DX003 (ip), vehicle: other
  T/C: 155 % of control
dose: 4.0 mg/kg/injection, schedule: Q01DX001 (oral), vehicle: other
  T/C: 100 % of control
dose: 4.0 mg/kg/injection, schedule: Q01DX005 (ip), vehicle: other
  T/C: 165 % of control
dose: 4.0 mg/kg/injection, schedule: Q01DX009 (ip), vehicle: Klucel (hydroxypropylcellulose) (HPC)
  T/C: 116 % of control
dose: 4.0 mg/kg/injection, schedule: Q01DX009 (ip), vehicle: other
  T/C: 94 % of control
dose: 4.0 mg/kg/injection, schedule: Q01DX009 (ip), vehicle: saline + alcohol
  T/C: 103 % of control
dose: 4.0 mg/kg/injection, schedule: Q01DX009 (oral), vehicle: other
  T/C: 122 % of control
dose: 4.0 mg/kg/injection, schedule: Q04DX003 (ip), vehicle: other
  T/C: 155 % of control
dose: 4.0 mg/kg/injection, schedule: Q08DX002 (ip), vehicle: other
  T/C: 152 % of control
dose: 8.0 mg/kg/injection, schedule: Q01DX001 (oral), vehicle: other
  T/C: 104 % of control
dose: 8.0 mg/kg/injection, schedule: Q01DX009 (oral), vehicle: other
  T/C: 92 % of control
dose: 8.0 mg/kg/injection, schedule: Q04DX003 (ip), vehicle: other
  T/C: 163 % of control
dose: 16.0 mg/kg/injection, schedule: Q01DX001 (oral), vehicle: other
  T/C: 95 % of control
dose: 500.0 micrograms/kg/injection, schedule: Q01DX009 (ip), vehicle: saline with Tween-80
  T/C: 150 % of control
dose: 1000.0 micrograms/kg/injection, schedule: Q01DX009 (ip), vehicle: saline with Tween-80
  T/C: 177 % of control
dose: 2000.0 micrograms/kg/injection, schedule: Q01DX009 (ip), vehicle: saline with Tween-80
  T/C: 152 % of control

## Cc1sc(NCc2ccccc2)c(C#N)c1C
[1]
  T/C: 101 % of control
[2]
  T/C: 97 % of control
[3]
  T/C: 93 % of control
[4]
  T/C: 86 % of control

## O=C1CC(c2ccccc2)NN1 (stereo unspecified)
dose: 50.0 mg/kg/injection, schedule: Q01DX009 (ip), vehicle: saline
  T/C: 103 % of control
dose: 100.0 mg/kg/injection, schedule: Q01DX009 (ip), vehicle: saline
  T/C: 97 % of control

## O=C1CN=C(c2ccccc2)N(c2ccccc2)N1
dose: 60.0 mg/kg/injection, schedule: Q01DX005 (ip), vehicle: Klucel (hydroxypropylcellulose) (HPC)
  T/C: 107 % of control
dose: 120.0 mg/kg/injection, schedule: Q01DX005 (ip), vehicle: Klucel (hydroxypropylcellulose) (HPC)
  T/C: 100 % of control
dose: 240.0 mg/kg/injection, schedule: Q01DX005 (ip), vehicle: Klucel (hydroxypropylcellulose) (HPC)
  T/C: 103 % of control

## CSc1ccc(NC(=O)n2nnc3ccccc32)cc1
[1]
  T/C: 103 % of control and 106 % of control
[2]
  T/C: 102 % of control and 110 % of control
[3]
  T/C: 100 % of control and 111 % of control
dose: 50.0 mg/kg/injection, schedule: Q01DX009 (ip), vehicle: Klucel (hydroxypropylcellulose) (HPC)
  T/C: 105 % of control and 109 % of control and 120 % of control
[4]
  T/C: 105 % of control and 117 % of control and 124 % of control
dose: 200.0 mg/kg/injection, schedule: Q01DX009 (ip), vehicle: Klucel (hydroxypropylcellulose) (HPC)
  T/C: 106 % of control and 97 % of control

## COc1ccc(/C(C)=C\C(=O)O)cc1
dose: 100.0 mg/kg/injection, schedule: Q01DX009 (ip), vehicle: saline with Tween-80
  T/C: 90 % of control
dose: 200.0 mg/kg/injection, schedule: Q01DX009 (ip), vehicle: saline with Tween-80
  T/C: 100 % of control
dose: 400.0 mg/kg/injection, schedule: Q01DX009 (ip), vehicle: saline with Tween-80
  T/C: 100 % of control
